The values below come from patent US20250375417A1, “OREXIN RECEPTOR 2 (OX2R) AGONIST FOR USE IN NARCOLEPSY TYPE 1 (NT1)” (TAKEDA PHARMACEUTICAL COMPANY LIMITED, priority 2024, published 2025).

Common to all, as to type: in vivo, human
Experiment [1] deals with participants with NT1. Kind of experiment: Maintenance of Wakefulness Test (MWT) sleep onset latency, Phase 2 NT1 trial (Example 1). As to the method:
In some aspects of the methods described herein, the subject experiences a higher mean sleep latency (also referred to as sleep onset latency or SOL) from the Maintenance of Wakefulness Test (MWT) after a treatment period compared to an untreated subject. The MWT is a validated, objective measure that evaluates a person's ability to remain awake under soporific conditions for a defined period of time. Because there is no biological measure of wakefulness, wakefulness is measured indirectly by the inability or delayed tendency to fall asleep. This tendency to fall asleep is measured via electroencephalography-derived sleep latency in the MWT. One MWT, that includes four 40-minute wake trials, is done on each day specified in the Schedule of Activities of the trial. Sleep latency in each wake trial is recorded. Participants are required to stay awake in between the 4 MWT wake trials.
During each MWT wake trial, participants are instructed to sit in a bed or reclining chair and remain awake for as long as possible in a dimly lit room. Wake trials are ended after 40 minutes if no sleep occurs. If no sleep has been observed according to these rules, then the latency is defined as 40 minutes.
Randomization was stratified by region. Starting on the morning of Day 1, the study drug was administered at approximately the same time each day for 8 or 12 weeks. If the participant wished to enroll in the long-term extension (LTE) study described in Example 3 but the LTE study had not started at the participant's site when the participant completed the Week 8 visit of the current study, the participant was allowed to continue in the current study for an additional 4 weeks.
The following doses were studied: • Compound A Dose Regimen 1:0.5 mg twice daily approximately 3 hours apart. • Compound A Dose Regimen 2:2 mg twice daily approximately 3 hours apart. • Compound A Dose Regimen 3:2 mg followed by 5 mg approximately 3 hours apart. • Compound A Dose Regimen 4:7 mg once daily (QD). • Other products required for the study: Matching placebo.
Dose regimens included once daily (QD) or twice daily (approximately 3 hours apart) dosing. Study treatment was administered at approximately 8 AM and 11 AM. (Participants assigned to a QD dose regimen received placebo for the second dose. Participants assigned to placebo received placebo for both doses).
Endpoints included change from baseline to Week 8 in mean sleep onset latency on the Maintenance of Wakefulness Test (SOL-MWT; primary endpoint), ESS total score, weekly cataplexy rate (WCR), and occurrence of treatment-emergent adverse events (TEAEs).

Experiment [2] has as its system participants with NT1. Description: Daily sleep diaries (disturbing dreams), Phase 2 NT1 trial. The source says:
Polysomnography (PSG) was collected at baseline and after 27 and 54 days of treatment. Sleep was manually scored following AASM guidelines; sleep metrics were extracted then computed by whole night and by quarter-night. Continuous accelerometry (Empatica EmbracePlus watch) allowed assessment of sleep in a naturalistic manner at home. Daily sleep diaries were used to capture subjective reports. Mixed effects models were fit with treatment, quarter-night, visit, and their interactions as fixed effects and random intercepts per subject. A reference PSG dataset (Vilela M, et al. J Sleep Res 2024; e14216) from CHU Montpellier (49 clinical controls and 114 patients with NT1, all drug-free) was analyzed to establish DNS characteristics of NT1.
At baseline, participants reported disturbing dreams, which contribute to DNS, an average of 2.8 nights/week (no significant differences across cohorts) in response to “Did you have disturbing dreams, nightmares, or frightening dreams during the night?” These reductions potentially relate to improvements in REM regulation with Compound A.

The test system of experiment [3] is participants with NT1. Kind of experiment: Narcolepsy Severity Scale for Clinical Trials (NSS-CT), Phase 2 NT1 trial. The source says:
Severity of NT1 symptoms can be assessed through the use of the NSS-CT. The NSS-CT is a 15-item self-administered questionnaire (total score: 0-57) that assesses the severity and consequences of the 5 major narcolepsy symptoms such as daytime sleepiness, cataplexy, hallucinations, sleep paralysis, and disrupted nighttime sleep (DNS). […] Further, the symptom number was associated with diagnosis delay, age at onset, and ESS and Beck Depression Inventory scores (Dauvilliers et al. 2020).
Methods: An analysis of exploratory data from the study was conducted to explore disease severity in individuals with ICSD-3 confirmed NT1. Eligible participants were age 18-70 years (Japan: 16-70), with an Epworth Sleepiness Scale (ESS) score>12, and >4 partial/complete episodes of cataplexy/week. Exploratory endpoints included change from baseline to Week 8 in the narcolepsy Severity Scale for clinical trials (NSS-CT), and Clinical Global Impression (CGI) and Patient Global Impression (PGI) at Week 8. The NSS-CT, a validated, self-administered 15-item scale, evaluates the severity, frequency, and impact of five main narcolepsy symptoms (higher scores indicate more severe symptoms).

Consider `CCS(=O)(=O)N[C@@H]1[C@H](Cc2cccc(-c3cc(F)cc(F)c3)c2F)N(C(=O)C(C)(C)O)CC1(F)F` [Compound A, N-{(2S,3R)-4,4-difluoro-1-(2-hydroxy-2-methylpropanoyl)-2-[(2,3′,5′-trifluoro[1,1′-biphenyl]-3-yl)methyl]pyrrolidin-3-yl}ethanesulfonamide], for which the “LS mean (SE) change from baseline to Week 8 in SOL-MWT” value in the experiment with participants with NT1 [1] (0.5 mg/0.5 mg) was 12.49 (2.13) minutes; in the experiment on participants with NT1 [1] (2 mg/2 mg), 23.50 (2.04) minutes; in the experiment on participants with NT1 [1] (2 mg/5 mg), 25.42 (2.07) minutes; in the experiment with participants with NT1 [1] (7 mg), 14.96 (1.95) minutes. Also, the “Rate of disturbing dreams, average estimated change from baseline” value with participants with NT1 [2] (across all treated cohorts and weeks) is −1.5 nights/week. In addition, in the experiment with participants with NT1 [2] (range across all treated cohorts and weeks), the “Rate of disturbing dreams, range of estimated change from baseline” value is −1.8 to −0.8 nights/week. The “NSS-CT total score, LS mean change from baseline to Week 8” value was −18.2 with participants with NT1 [3] (0.5 mg/0.5 mg), −21.0 in the experiment on participants with NT1 [3] (2 mg/2 mg), −21.1 with participants with NT1 [3] (2 mg/5 mg) and −17.2 in the experiment on participants with NT1 [3] (7 mg).
